Results on 15 compounds are retold here after the NIST ThermoML archive (doi:10.1016/j.fluid.2013.02.008).

This data set can be described thus: activity coefficient (dimensionless); of the first substance listed, at infinite dilution; xn = mol fraction of the nth substance listed. The following applies: Liquid, Chromatography, x1 = 0.

± gives the expanded uncertainty stated by the source.

In the case of `CCCCCC` [hexane] + CCCCCCCCCCCCO, the activity coefficient is, setting by setting: (312.7 K, 101 kPa) 2.03 ± 0.14; (332.1 K, 101 kPa) 1.98 ± 0.13; (353.2 K, 101 kPa) 1.86 ± 0.13.

For the compound `CCCCCCCC` [octane] + OCCO, the activity coefficient came out at 631 ± 43 (332.1 K), 447 ± 31 (353.6 K), 383 ± 26 (372.7 K) and 313 ± 22 (392.4 K).

With `CCCCCCCCCC` [decane] + CCCCCCCCCCCCCCO, the activity coefficient came to 2.1 ± 0.14 (353 K, 101 kPa); 1.9 ± 0.13 (372.4 K, 101 kPa); 1.79 ± 0.12 (392 K, 101 kPa); 1.68 ± 0.11 (430.3 K, 101 kPa).

Regarding `CCCCCCCC` [octane] + OCCCO, the activity coefficient by setting is: (312.1 K, 101 kPa) 314 ± 22; (333.1 K, 101 kPa) 283 ± 19; (352.1 K, 101 kPa) 224 ± 15; (372.1 K, 101 kPa) 187 ± 13; (391.1 K, 101 kPa) 148 ± 10.

Regarding `CCCCCC` [hexane] + CCCCCCCCCCO, the activity coefficient is 2.21 ± 0.15 (312.6 K, 101 kPa); 2.14 ± 0.15 (331.7 K, 101 kPa); 2.02 ± 0.14 (352.9 K, 101 kPa).

For the compound `CCCCCCCCCC` [decane] + OCCCO, the activity coefficient is 793 ± 55 (312.1 K, 101 kPa); 589 ± 41 (333.1 K, 101 kPa); 501 ± 34 (352.1 K, 101 kPa); 464 ± 32 (372.1 K, 101 kPa); 338 ± 23 (391.1 K, 101 kPa); 256 ± 18 (411.1 K, 101 kPa).

For the compound `CCCCCCCCCC` [decane] + OCCO, the activity coefficient by setting is: (359.5 K, 101 kPa) 1680 ± 120; (373.1 K, 101 kPa) 1210 ± 84; (392.4 K, 101 kPa) 804 ± 55; (411.5 K, 101 kPa) 557 ± 38; (431 K, 101 kPa) 454 ± 31.

In the case of `CCCCCC` [hexane] + OCCO, the activity coefficient (313.2 K, 101 kPa) was 97.8 ± 6.7; the activity coefficient (332.1 K, 101 kPa) is 88.1 ± 6; the activity coefficient (353.5 K, 101 kPa) was 80.6 ± 5.5.

As to `CCCCCC` [hexane] + OCCCO, the activity coefficient (312.1 K, 101 kPa) is 77.2 ± 5.3; the activity coefficient (333.1 K, 101 kPa) came to 72.9 ± 5; the activity coefficient (352.1 K, 101 kPa) was 52.4 ± 3.6.

On to `CCCCCCCC` [octane] + CCCCCCCCCCO, for which the activity coefficient runs as follows: (352.7 K, 101 kPa) 2.44 ± 0.17; (372.2 K, 101 kPa) 2.28 ± 0.16; (391.8 K, 101 kPa) 2.15 ± 0.15.

Turning to `CCCCCCCCCC` [decane] + CCCCCCCCCCCCO, the activity coefficient (352.7 K, 101 kPa) came to 3.46 ± 0.24; the activity coefficient (362.5 K, 101 kPa) stood at 2.93 ± 0.2; the activity coefficient (372.8 K, 101 kPa) is 2.67 ± 0.18; the activity coefficient (382.9 K, 101 kPa) is 2.42 ± 0.16; the activity coefficient (392 K, 101 kPa) came to 2.31 ± 0.16; the activity coefficient (410.9 K, 101 kPa) came out at 2.31 ± 0.16. In addition, the activity coefficient (430.6 K, 101 kPa) came out at 2.18 ± 0.15.

In the case of `CCCCCCCC` [octane] + CCCCCCCCCCCCO, the activity coefficient is, setting by setting: (353.3 K, 101 kPa) 2.29 ± 0.16; (362.6 K, 101 kPa) 2.21 ± 0.15; (372.4 K, 101 kPa) 2.16 ± 0.15; (383 K, 101 kPa) 2.08 ± 0.14; (411.1 K, 101 kPa) 1.9 ± 0.13; (430.6 K, 101 kPa) 1.76 ± 0.12.

In the case of `CCCCCCCC` [octane] + CCCCCCCCCCCCCCO, the activity coefficient (353 K, 101 kPa) was 1.87 ± 0.08; the activity coefficient (372.4 K, 101 kPa) was determined as 1.76 ± 0.07; the activity coefficient (391.9 K, 101 kPa) was 1.69 ± 0.07; the activity coefficient (410.6 K, 101 kPa) worked out at 1.63 ± 0.07; the activity coefficient (430.6 K, 101 kPa) amounted to 1.61 ± 0.06.

Take `CCCCCC` [hexane] + CCCCCCCCCCCCCCO: the activity coefficient reads like this: (331.8 K, 101 kPa) 1.69 ± 0.11; (353 K, 101 kPa) 1.6 ± 0.11.

With `CCCCCCCCCC` [decane] + CCCCCCCCCCO, the activity coefficient by setting is: (352.8 K, 101 kPa) 2.98 ± 0.2; (372.2 K, 101 kPa) 2.73 ± 0.19; (391.6 K, 101 kPa) 2.6 ± 0.18.
